In US20190030053A1, “COMPOSITION FOR INCREASING EXPRESSION OF PGC-1alpha” (BENEBIOSIS CO., LTD., priority 2016, published 2019):

Assays:
[1] = system: mouse aortic smooth muscle cells (MASMs); assay: Intracellular H2O2 (ROS values, H2DCFDA) in MASMs of arteriosclerosis model mice; type: cell-based; settings: MASMs from PGC-1α+/+ApoE−/− mice; SL added to culture liquid
Method: For cell-level tests, mouse aortic smooth muscle cells (MASMs) were isolated from the control group fed with a high-fat diet (Rodent Diet with 60 kcal % fat) without SL administration (Griendling et al., 1991), and the SL (3′-SL & 6′-SL) compositions were added to the culture liquid, followed by comparison. For intracellular H2O2 measurement (ROS values), the cells were cultured in 12-well culture plates immersed in 0.1% bovine calf serum. The intracellular ROS values were measured using H2DCFDA. For assay, the cells were cultured together with H2DCFDA in HBSS buffer for 30 minutes. The cells were trypsinized, washed, and lysed in HBSS. The fluorescence values were measured immediately by a CytoFluor plate reader (FIG. 19a).
In FIGS. 19a and 19b, MASMs were extracted from the model mouse (PGC-1α^+/+ApoE^−/−) control group, and the SL (3′-SL & 6′-SL) compositions were added to the culture liquid to conduct comparison.
FIGS. 19a and 19b show the measurement results of intercellular H2O2 (ROS values) (FIG. 19a) and the measurement results of mitochondrial superoxide production (FIG. 19b). MASMs were extracted from the model mice (PGC-1α^+/+ApoE^−/−), and the SL (3′-SL & 6′-SL) compositions were added to the culture liquid to conduct comparison.

[2] = system: 6-OHDA induced SD rat Parkinson's disease models; assay: Behavioral ability tests (corner turn and descent, vertical grating device) in Parkinson's disease models; type: in vivo; settings: 6-OHDA SD rats, oral 0.1 mg/kg/day
Text: In order to investigate the changes in gene expression and behavior improvement by the treatment with SL (3′-SL & 6′-SL) compositions in Parkinson's brain disease models, 13-week-old normal SD rats and Parkinson's brain disease models were purchased from Central Lab Animal (Korea). Water was freely accessible, and a commercially available pellet feed (Dooyeul Biotech, Korea) was given for one week. At 14 weeks of age, the SD rats were divided into four groups (composed of 8 animals per group): Eight 14-week-old male SD rats (normal rats; initial body weight, average 355.6±32.3 g) treated with a normal diet were used for a control group. The 6-OHDA induced SD rat Parkinson's disease models, which were administered with 6-hydroxydopamine (6-OHDA) at 8 weeks of age and supplied at 13 weeks of age, were randomly divided into three different dietary treatment groups below (8 animals per group), and these diets were maintained from 14 weeks of age for 10 weeks (total 32 animals): • Control group: Normal rats fed with a normal diet without SL administration (8 animals) • (Parkinson's disease model) group: Parkinson's disease models fed with a normal diet without SL administration (8 animals) • (Parkinson's disease model+3′-SL) group: Parkinson's disease models treated with 3′-sialyllactose (3′-SL, Sigma) (oral administration of 0.1 mg per kg of rat weight per day) in addition to the normal diet group (8 animals) • (Parkinson's disease model+6′-SL) group: Parkinson's disease models treated with 6′-sialyllactose (6′-SL, Sigma) (oral administration of 0.1 mg per kg of rat weight per day) in addition to the normal diet group (8 animals)
In FIG. 8, the vertical axis represents the corner turn time and the descent time as a result of carrying out behavioral ability tests (corner turn and descent) using a vertical grating device on a control group, (Parkinson's disease model) group, (Parkinson's disease model+3′-SL) group, and (Parkinson's disease model+6′-SL) group. The vertical grating device was in the form of an opened box of 5 cm×55 cm×8 cm, and the frant face was formed of a wiring of 0.8 cm×0.8 cm and the other surfaces were formed of black plexiglass. The bottom was made 5 cm longer for safety. In the test, the […] were placed in an upward direction at a distance of 3 cm from the top of the device, and were allowed to acclimate to the device three times for two days before testing. The above procedure was repeated if the rat could not come down within 60 seconds. The corner turn time is the time it takes for a rat facing upwards to turn downwards, and the descent time is the time obtained by subtracting the corner turn time from the overall test time for which the rat turns at the corner and descends to the bottom.

Row | Compound | intracellular H2O2 (ROS values) [1] | corner turn time [2] | descent time [2]
1 | CC(=O)N[C@H]1[C@H]([C@H](O)[C@H](O)CO)O[C@@](O[C@H]2[C@@H](O)[C@@H](CO)O[C@@H](O[C@H]3[C@H](O)[C@@H](O)C(O)O[C@@H]3CO)[C@@H]2O)(C(=O)O)C[C@@H]1O (stereo partly drawn) [3′-SL, α-NeuNAc-(2→3)-β-D-Gal-(1→4)-D-Glc] | dropped the ROS values | relatively low compared with 6′-SL | relatively low compared with 6′-SL
2 | CC(=O)N[C@H]1[C@H]([C@H](O)[C@H](O)CO)O[C@@](OC[C@H]2O[C@@H](O[C@H]3[C@H](O)[C@@H](O)[C@H](O)O[C@@H]3CO)[C@H](O)[C@@H](O)[C@H]2O)(C(=O)O)C[C@@H]1O [6′-SL, α-NeuNAc-(2→6)-β-D-Gal-(1→4)-D-Glc] | dropped the ROS values | almost similar to those in the control group | almost similar to those in the control group
